Data from ChEMBL document CHEMBL1201862, “PubChem BioAssay data set” (2004).
Each block holds one molecule with its values, some of them ahead of it. The source made the active and inactive calls.

Columns and labels:
Hexokinase-1 = Hexokinase-1 (Homo sapiens, UniProt P19367); test: SAR analysis of small molecule inhibitors of hexokinase domain containing I (HKDC1) in the hexokinase 1 selectivity assay. [Related pubchem assays (depositor defined):AID493160, AID493190]; format: functional
Hexokinase HKDC1 = molecular target: T1, Hexokinase HKDC1 (Homo sapiens, UniProt Q2TB90); test: SAR analysis of small molecule inhibitors of hexokinase domain containing I (HKDC1). [Related pubchem assays (depositor defined):AID493160, AID493190]; format: functional
T1 sequence (Q2TB90 whole entry): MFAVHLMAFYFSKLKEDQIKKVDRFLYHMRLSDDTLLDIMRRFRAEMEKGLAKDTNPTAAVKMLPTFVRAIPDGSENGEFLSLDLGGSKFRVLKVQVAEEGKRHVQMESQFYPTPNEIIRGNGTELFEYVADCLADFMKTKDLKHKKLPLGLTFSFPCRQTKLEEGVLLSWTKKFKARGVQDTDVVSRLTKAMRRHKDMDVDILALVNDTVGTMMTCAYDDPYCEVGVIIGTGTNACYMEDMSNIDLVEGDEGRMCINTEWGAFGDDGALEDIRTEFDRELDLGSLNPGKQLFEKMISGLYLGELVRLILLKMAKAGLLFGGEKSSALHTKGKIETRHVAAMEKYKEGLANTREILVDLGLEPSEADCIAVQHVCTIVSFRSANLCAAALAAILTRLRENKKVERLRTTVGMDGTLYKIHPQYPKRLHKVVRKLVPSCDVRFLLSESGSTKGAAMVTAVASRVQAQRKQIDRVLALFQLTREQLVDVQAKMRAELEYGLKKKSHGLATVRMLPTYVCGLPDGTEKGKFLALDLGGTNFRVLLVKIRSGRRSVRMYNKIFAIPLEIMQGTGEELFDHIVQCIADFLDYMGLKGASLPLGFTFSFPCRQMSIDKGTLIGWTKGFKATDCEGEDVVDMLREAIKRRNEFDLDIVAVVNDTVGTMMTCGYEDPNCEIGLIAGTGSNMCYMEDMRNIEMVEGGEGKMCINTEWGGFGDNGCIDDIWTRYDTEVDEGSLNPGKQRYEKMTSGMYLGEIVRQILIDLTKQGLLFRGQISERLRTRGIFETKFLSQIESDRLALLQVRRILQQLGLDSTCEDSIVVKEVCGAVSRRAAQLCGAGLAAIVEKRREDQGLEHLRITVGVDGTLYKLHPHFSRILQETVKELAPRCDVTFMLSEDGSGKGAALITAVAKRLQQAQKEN

[1] = molecular target: Nuclear receptor subfamily 0 group B member 1 (Homo sapiens, UniProt P51843); test: Luminescence-based cell-based high throughput dose response assay for inhibitors of the orphan nuclear receptor subfamily 0, group B, member 1 (DAX1; NR0B1). [Related pubchem assays (depositor defined):AID504766, AID504790]; format: functional
Nuclear receptor subfamily 0 group B member 1, sequence (P51843 whole entry): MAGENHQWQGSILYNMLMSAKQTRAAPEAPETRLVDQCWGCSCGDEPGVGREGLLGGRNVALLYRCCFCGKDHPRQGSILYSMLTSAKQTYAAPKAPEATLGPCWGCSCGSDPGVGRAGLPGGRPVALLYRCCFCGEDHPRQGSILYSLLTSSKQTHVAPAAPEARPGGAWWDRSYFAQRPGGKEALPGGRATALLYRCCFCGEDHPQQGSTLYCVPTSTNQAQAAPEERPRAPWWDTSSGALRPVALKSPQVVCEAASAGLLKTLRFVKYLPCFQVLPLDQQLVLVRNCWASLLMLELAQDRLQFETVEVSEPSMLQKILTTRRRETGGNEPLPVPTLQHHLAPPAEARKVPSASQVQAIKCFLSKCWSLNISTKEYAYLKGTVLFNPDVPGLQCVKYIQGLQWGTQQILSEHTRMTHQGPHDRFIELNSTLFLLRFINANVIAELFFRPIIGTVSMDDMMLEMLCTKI

HEK293 = test: cells; format: functional, cell-based; conditions: Homo sapiens
Troponin, cardiac muscle = Troponin, cardiac muscle (Homo sapiens, UniProt P19429+P45379+P63316); test: inhibitors of cardiac thin filament calcium sensitivity, dose response, biochemical, fluorescence, cardiac regulated thin filaments, triplicate IC50 (AID 504742); format: protein-complex assay
[2] = molecular target: Beta-adrenergic receptor kinase 1 (Homo sapiens, UniProt P25098); test: aptamer displacement from bead-bound GRK2 – biochemical, cherry pick 1, bead flow cytometry, dose response (AID 504500)
Beta-adrenergic receptor kinase 1, sequence (P25098 whole entry): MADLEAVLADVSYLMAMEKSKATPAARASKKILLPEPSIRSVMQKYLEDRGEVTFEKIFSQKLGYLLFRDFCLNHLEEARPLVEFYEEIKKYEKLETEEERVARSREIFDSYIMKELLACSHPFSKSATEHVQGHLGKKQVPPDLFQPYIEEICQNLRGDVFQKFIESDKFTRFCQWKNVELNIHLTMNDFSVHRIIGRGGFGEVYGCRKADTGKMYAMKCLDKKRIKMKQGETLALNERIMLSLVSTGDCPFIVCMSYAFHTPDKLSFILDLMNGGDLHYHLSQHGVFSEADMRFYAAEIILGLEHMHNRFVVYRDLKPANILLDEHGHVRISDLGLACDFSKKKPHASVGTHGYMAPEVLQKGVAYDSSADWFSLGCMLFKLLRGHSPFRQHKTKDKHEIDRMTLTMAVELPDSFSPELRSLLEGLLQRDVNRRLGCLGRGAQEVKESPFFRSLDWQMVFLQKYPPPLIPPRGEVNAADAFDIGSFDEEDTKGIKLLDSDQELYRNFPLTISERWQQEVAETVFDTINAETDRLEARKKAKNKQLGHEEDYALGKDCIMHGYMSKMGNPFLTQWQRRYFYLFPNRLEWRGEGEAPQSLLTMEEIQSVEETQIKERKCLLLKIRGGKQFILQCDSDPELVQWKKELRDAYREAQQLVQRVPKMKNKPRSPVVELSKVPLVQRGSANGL

[3] = molecular target: T2, Rac GTPase-activating protein 1 (Homo sapiens, UniProt Q9H0H5); test: MgcRacGAP GTPase-activating activity inhibitors, confirmation, biochemical, ADP Hunter fluorescence, primary and confirmatory (AID 624330); format: functional
T2 sequence (Q9H0H5 whole entry): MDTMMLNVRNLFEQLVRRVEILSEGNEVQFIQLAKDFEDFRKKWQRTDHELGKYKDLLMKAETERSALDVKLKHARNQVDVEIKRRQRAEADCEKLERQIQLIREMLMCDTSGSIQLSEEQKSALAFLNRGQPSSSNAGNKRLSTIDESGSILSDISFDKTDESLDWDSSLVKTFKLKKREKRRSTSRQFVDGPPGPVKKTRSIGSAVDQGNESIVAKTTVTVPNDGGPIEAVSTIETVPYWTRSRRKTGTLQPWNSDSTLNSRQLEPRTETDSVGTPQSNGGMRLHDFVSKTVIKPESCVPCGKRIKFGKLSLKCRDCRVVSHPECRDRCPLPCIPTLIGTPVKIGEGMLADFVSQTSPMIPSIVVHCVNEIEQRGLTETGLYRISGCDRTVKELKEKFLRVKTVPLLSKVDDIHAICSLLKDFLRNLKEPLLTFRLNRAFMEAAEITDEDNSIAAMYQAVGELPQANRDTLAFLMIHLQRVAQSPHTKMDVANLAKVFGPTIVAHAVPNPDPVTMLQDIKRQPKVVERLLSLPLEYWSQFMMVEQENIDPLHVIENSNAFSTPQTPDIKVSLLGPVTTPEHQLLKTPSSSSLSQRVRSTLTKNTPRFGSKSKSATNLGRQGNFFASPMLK

[4] = THP-1 cell cytotoxicity, dose response, cytotoxicity control for Vif-APOBEC3G degradation inhibitor project, THP-1 cells (AID 1117359); format: functional; conditions: Human immunodeficiency virus 1, THP-1
[5] = molecular target: T3, Histone-lysine N-methyltransferase NSD2 (Homo sapiens, UniProt O96028); format: biochemical
T3 sequence (O96028 whole entry): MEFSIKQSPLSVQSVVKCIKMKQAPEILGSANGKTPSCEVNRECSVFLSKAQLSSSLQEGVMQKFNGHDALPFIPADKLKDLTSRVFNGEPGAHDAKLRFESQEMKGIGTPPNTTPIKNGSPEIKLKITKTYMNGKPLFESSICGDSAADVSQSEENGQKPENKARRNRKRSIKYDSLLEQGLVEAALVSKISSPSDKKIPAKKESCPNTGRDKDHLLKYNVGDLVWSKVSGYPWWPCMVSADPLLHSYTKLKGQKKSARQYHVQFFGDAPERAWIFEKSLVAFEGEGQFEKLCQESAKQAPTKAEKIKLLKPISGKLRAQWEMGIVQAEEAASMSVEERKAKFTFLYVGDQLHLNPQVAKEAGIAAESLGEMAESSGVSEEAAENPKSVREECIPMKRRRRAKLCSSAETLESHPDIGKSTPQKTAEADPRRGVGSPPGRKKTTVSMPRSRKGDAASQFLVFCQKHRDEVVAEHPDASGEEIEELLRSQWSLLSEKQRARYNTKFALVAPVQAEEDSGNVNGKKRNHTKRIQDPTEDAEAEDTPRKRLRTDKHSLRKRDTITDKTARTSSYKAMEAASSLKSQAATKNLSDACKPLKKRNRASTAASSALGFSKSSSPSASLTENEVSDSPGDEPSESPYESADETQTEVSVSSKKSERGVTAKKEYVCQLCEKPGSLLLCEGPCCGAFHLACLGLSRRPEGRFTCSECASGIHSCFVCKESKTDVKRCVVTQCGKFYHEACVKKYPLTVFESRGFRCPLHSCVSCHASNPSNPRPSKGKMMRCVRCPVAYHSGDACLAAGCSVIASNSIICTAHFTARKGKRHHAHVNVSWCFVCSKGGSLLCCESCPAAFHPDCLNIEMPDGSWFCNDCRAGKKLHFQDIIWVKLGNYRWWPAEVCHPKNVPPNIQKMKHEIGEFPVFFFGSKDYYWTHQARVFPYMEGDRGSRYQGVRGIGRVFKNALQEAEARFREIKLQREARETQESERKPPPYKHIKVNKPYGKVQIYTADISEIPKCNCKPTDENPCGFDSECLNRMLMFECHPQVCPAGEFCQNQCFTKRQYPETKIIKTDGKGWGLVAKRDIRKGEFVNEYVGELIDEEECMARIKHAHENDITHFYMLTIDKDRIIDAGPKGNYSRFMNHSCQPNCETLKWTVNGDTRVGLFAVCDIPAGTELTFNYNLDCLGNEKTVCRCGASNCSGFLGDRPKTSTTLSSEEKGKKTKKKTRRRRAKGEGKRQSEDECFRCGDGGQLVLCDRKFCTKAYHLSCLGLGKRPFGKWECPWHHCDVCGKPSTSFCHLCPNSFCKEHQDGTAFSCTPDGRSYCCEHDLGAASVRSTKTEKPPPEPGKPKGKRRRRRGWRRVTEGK

[6] = molecular target: T4, Zinc finger protein mex-5 (Caenorhabditis elegans, UniProt Q9XUB2); test: MEX-5/TCR-2 RNA interaction inhibitors, dose response, biochemical, C. elegans, fluorescence polarization (AID 1960)
T4 sequence (Q9XUB2 whole entry): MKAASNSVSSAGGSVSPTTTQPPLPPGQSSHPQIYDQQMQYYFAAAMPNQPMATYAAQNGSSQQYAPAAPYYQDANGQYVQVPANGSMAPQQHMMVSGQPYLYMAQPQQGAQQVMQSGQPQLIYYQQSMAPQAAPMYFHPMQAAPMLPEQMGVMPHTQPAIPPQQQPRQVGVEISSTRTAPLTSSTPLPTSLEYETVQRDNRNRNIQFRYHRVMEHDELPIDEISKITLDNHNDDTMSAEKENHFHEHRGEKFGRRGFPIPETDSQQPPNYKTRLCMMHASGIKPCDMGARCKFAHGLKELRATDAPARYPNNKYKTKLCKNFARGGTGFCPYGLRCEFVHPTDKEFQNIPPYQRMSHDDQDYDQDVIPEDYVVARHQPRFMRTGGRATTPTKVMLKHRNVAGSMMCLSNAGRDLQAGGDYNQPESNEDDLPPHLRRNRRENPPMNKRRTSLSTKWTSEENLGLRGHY

[7] = molecular target: Induced myeloid leukemia cell differentiation protein Mcl-1 (Homo sapiens, UniProt Q07820); format: functional
Induced myeloid leukemia cell differentiation protein Mcl-1, sequence (Q07820 whole entry): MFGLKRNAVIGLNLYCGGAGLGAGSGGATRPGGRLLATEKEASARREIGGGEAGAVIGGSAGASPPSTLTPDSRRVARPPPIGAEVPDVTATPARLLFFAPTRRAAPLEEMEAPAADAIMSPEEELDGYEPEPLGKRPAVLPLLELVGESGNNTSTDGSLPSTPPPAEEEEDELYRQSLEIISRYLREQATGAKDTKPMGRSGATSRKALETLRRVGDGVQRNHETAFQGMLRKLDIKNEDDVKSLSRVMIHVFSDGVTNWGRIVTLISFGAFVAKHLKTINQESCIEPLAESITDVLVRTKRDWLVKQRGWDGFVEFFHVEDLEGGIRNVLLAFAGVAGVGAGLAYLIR

[8] = molecular target: T5, Heat shock 70 kDa protein 1A (Homo sapiens, UniProt P0DMV8); test: Hsp70 inhibitors, biochemical, TR-FRET (AID 786)
T5 sequence (P0DMV8 whole entry): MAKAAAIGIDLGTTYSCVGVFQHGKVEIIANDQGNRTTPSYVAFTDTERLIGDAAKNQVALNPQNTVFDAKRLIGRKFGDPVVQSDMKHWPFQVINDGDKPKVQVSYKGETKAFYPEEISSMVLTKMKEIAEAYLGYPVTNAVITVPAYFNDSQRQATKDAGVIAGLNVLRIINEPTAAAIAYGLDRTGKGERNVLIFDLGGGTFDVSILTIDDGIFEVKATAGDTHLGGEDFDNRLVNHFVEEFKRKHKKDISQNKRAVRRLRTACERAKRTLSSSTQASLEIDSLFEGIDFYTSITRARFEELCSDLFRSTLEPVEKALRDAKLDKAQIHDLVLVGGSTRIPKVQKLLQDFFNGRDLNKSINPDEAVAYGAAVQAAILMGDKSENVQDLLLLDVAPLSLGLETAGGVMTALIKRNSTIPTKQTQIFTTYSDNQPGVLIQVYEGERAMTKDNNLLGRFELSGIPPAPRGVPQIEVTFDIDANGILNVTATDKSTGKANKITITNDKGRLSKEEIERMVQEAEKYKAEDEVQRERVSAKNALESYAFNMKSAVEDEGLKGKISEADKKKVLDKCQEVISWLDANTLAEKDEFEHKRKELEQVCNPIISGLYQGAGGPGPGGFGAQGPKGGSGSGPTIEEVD

[9] = molecular target: T5, Heat shock 70 kDa protein 1A; test: Hsp70 inhibitors, probe displacement, primary screen, biochemical, fluorescence polarization (AID 583)
[10] = molecular target: DNA (cytosine-5)-methyltransferase 1 (Homo sapiens, UniProt P26358); test: DNMT1 methyltransferase inhibitors, confirmation, biochemical, fluorescent molecular beacon (AID 602386); format: functional
Large T antigen = Large T antigen (Simian virus 40, UniProt P03070); format: functional, Betapolyomavirus macacae;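 also: Confirmatory-stage PubChem screen for compounds that inhibit SV40 T antigen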
[11] = molecular target: T6, RNA-binding protein pos-1 (Caenorhabditis elegans, UniProt G5EF15); test: inhibitors of POS-1/mex-3 RNA binding, dose response, biochemical, fluorescence polarization (AID 1964);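 also: purified POS-1 fused to maltose binding protein made in E. coli; potency of compounds blocking POS-1 binding to fluorescent RNA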
T6 sequence (G5EF15 whole entry): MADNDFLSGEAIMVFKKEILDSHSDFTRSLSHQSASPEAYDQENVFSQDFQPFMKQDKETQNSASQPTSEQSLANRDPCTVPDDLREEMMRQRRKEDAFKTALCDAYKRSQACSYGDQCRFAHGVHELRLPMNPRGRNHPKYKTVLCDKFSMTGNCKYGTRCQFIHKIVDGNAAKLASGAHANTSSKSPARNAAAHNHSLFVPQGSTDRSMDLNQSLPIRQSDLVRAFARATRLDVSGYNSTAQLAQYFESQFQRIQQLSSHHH

ORF 73 = ORF 73 (Human herpesvirus 8, UniProt O40947); test: inhibitors of C-LANA binding to LBS DNA, dose response, biochemical, fluorescence polarization, cherry-picked samples (AID 504725); parameters: species or system Human gammaherpesvirus 8;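 also: fluorescence polarization of a labeled DNA duplex reporting LANA DNA binding; potency is for inhibitors that block LANA binding to the DNA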
[12] = molecular target: Beta-2 adrenergic receptor (Homo sapiens, UniProt P07550); test: beta2AR agonists driving receptor internalization, dose response, cell-based, FAP fluorogen, flow cytometry, cherry pick 1 (AID 588763); format: functional
Beta-2 adrenergic receptor, sequence (P07550 whole entry): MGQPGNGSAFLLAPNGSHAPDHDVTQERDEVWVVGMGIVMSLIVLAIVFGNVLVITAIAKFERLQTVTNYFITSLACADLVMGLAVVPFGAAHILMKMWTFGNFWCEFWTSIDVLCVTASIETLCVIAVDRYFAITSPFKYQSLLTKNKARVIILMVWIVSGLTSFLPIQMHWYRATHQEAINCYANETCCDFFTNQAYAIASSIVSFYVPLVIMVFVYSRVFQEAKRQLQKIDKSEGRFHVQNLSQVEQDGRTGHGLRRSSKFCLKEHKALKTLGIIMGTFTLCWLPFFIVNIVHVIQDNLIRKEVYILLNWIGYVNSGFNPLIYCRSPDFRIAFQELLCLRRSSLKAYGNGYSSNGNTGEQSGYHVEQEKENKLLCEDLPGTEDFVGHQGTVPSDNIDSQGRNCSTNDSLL

[13] = molecular target: ATP-dependent molecular chaperone HSP82 (Candida albicans (strain WO-1) (Yeast), UniProt C4YTQ8); test: loss of DOC-induced GRE-beta-galactosidase reporter signal, dose response, Hsp90 inhibitor project, S. cerevisiae, luminescence (AID 2400); format: functional, cell-based;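 also: beta-galactosidase luminescence from glucocorticoid response element reporter as proxy for Hsp90 function; inhibitor potency where signal loss means Hsp90 inhibition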
ATP-dependent molecular chaperone HSP82, sequence (C4YTQ8 whole entry): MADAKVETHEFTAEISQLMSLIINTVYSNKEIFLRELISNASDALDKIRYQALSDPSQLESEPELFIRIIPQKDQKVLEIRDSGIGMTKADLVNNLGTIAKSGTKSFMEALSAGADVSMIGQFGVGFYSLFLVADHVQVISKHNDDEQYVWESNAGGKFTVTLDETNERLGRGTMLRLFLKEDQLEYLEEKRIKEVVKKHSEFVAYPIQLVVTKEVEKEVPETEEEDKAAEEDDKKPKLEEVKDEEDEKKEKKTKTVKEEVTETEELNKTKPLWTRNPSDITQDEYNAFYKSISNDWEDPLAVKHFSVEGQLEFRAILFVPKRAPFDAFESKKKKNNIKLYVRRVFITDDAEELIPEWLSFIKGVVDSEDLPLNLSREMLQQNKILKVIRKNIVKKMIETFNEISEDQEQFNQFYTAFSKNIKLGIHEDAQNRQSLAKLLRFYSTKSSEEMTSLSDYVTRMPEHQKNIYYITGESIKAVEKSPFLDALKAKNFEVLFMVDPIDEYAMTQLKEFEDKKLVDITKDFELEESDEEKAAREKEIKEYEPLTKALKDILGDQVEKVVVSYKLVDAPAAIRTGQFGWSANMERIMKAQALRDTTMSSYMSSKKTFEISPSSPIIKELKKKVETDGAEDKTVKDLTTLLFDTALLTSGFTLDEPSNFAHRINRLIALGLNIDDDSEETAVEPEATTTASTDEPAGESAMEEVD

[14] = molecular target: T7, Ubiquitin-conjugating enzyme E2 N (Homo sapiens, UniProt P61088); format: functional
T7 sequence (P61088 whole entry): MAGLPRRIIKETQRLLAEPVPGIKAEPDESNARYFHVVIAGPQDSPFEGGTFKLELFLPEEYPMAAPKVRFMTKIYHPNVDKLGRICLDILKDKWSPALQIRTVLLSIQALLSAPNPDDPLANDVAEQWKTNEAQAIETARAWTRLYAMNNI

[15] = molecular target: Serine/threonine-protein phosphatase (Candida dubliniensis (strain CD36 / CBS 7987 / NCPF 3949 / NRRLY-17841) (Yeast), UniProt B9W6M3); test: calcineurin pathway inhibitors in yeast reporter, dose response, S. cerevisiae, CDRE-lacZ, luminescence, secondary (AID 2388); format: functional, cell-based;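 also: yeast reporter cells carrying a calcineurin-responsive lacZ construct stimulated with calcium chloride; luminescent beta-galactosidase reporter signal in whole cells rather than isolated phosphatase activity; potency for inhibition where a drop in reporter signal means calcineurin blockade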
Serine/threonine-protein phosphatase, sequence (B9W6M3 whole entry): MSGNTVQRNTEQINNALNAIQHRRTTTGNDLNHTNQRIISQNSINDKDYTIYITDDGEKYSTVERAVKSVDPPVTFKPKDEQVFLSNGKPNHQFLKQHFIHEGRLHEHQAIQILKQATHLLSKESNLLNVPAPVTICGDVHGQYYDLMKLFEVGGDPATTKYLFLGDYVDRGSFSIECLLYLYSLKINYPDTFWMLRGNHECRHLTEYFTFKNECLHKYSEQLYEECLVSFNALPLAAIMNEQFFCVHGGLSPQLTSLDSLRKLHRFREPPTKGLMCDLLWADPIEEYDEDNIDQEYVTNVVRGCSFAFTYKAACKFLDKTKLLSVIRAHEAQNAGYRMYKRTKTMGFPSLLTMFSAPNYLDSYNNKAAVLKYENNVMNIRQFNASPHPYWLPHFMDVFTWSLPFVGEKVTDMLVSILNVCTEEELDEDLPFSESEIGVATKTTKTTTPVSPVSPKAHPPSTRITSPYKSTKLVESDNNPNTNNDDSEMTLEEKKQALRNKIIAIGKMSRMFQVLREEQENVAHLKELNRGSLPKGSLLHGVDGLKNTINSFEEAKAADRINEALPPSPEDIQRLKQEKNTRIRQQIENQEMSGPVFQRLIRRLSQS

[16] = molecular target: T7, Ubiquitin-conjugating enzyme E2 N; format: functional; remark: listed apart in the source
Bcl-2-related protein A1 = molecular target: T8, Bcl-2-related protein A1 (Mus musculus, UniProt Q07440); format: functional;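 also: confirmatory dose–response counterscreen on Bfl-1, used to check hits from a UBC13 polyubiquitin inhibitor campaign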
T8 sequence (Q07440 whole entry): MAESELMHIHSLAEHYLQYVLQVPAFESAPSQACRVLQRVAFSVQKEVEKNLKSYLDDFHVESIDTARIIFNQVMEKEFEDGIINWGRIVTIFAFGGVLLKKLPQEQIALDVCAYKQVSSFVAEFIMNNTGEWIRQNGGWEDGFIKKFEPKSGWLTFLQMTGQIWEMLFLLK

Hexokinase-1, sequence (P19367 whole entry, the tested form may be a part): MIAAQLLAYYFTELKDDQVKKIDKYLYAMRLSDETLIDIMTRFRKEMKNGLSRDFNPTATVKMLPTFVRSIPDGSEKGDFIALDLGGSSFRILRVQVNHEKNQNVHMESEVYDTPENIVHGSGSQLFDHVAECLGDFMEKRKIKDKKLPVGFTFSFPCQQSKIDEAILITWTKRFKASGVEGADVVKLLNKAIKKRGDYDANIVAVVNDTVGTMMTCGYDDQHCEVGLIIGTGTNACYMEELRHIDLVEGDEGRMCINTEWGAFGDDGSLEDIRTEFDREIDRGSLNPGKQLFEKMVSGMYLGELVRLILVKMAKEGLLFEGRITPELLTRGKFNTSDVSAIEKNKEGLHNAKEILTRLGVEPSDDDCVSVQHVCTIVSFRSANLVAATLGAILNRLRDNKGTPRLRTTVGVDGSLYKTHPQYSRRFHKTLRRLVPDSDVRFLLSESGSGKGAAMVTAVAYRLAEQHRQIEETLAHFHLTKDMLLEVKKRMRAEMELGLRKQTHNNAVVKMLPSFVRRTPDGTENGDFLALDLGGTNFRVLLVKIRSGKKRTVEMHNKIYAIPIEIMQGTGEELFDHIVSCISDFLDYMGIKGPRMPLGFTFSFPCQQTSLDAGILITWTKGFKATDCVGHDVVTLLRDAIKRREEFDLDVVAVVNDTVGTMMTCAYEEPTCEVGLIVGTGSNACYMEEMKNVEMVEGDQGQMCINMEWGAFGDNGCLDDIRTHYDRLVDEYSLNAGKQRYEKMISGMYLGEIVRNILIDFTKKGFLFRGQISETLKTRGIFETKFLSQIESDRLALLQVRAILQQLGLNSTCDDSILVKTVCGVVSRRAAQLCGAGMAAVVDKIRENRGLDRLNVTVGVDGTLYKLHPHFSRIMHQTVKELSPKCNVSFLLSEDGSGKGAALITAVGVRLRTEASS

Compound: O=c1c2ccccc2nc(/C=C/c2cccnc2)n1-c1ccccc1
IC50 (Hexokinase-1): > 80 µM (inactive) | IC50 (Hexokinase HKDC1): > 80 µM (inactive)

Compound: Cc1cc(NC(=O)c2cc3cccc([N+](=O)[O-])c3[nH]2)ccc1F
IC50 [1]: > 67.5 µM (inactive) | IC50 (HEK293): > 67.5 µM (inactive)

Compound: CC1=NN(c2cccc(C(=O)O)c2)C(=O)/C1=C\C=C\c1ccco1
IC50 (Troponin, cardiac muscle): 15 µM (inactive) | EC50 [2]: 14.8 µM (inactive) | IC50 [3]: 66.7 µM (active) | CC50 [4]: > 40 µM (active) | AC50 [5]: 2.19 µM (active) | EC50 [6]: 23.7 µM (inconclusive) | IC50 [7]: 4.73 µM (active) | IC50 [8]: 17.4 µM (active) | IC50 [9]: 21.7 µM (active) | IC50 [10]: 1.18 µM (active) | IC50 (Large T antigen): 27.6 µM (active) | EC50 [11]: 19.9 µM (active) | AC50 (ORF 73): 18 µM (active)

Other lines, results leading:

EC50 [12]: 1.04 µM (active)
Compound: CCOC(=O)N1CCN(c2nnc(-c3ccc(C)cc3)c3ccccc23)CC1

EC50 [13]: 19.2 µM (active) | IC50 [14]: > 20 µM (inactive) | EC50 [15]: > 180 µM (inactive) | IC50 [16]: 9.98 µM (active) | IC50 (Bcl-2-related protein A1): > 20 µM (inactive)
Compound: Fc1cccc(-n2cc(-c3ccccc3)c3c(=S)[nH]cnc32)c1
